Laboratory results reported in the supplement of paper PMC11962398.

What was measured:
[1] = compound: T1, C[C@H]1CNCCN1c1nccc(-c2noc3c2CCC[C@@]32CCCc3sc(N)c(C#N)c32)n1 [BI-2493]; conditions: 5 days
Experimental: (§1)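 PRISM pooled barcoded cancer cell line viability screen (Broad Institute) with BI-2493 at 8 doses in threefold dilutions from 0.00457 to 10 µmol/L, 5-day treatment; curves fitted per cell line. IC50 is undefined (placeholder) for resistant lines. AUC is capped at 1, and sensitivity is reported as 1 − AUC.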

[2] = compound: T1, BI-2493; experiment: 1 - AUC of viability dose-response curve (sensitivity) (fraction); higher = more sensitive; conditions: 5 days
Experimental: as §1

Test System | IC50 of cell viability [1] [µM] | 1 - AUC of viability dose-response curve [2]
SH4_SKIN | 6.75 | 0.0518
SH10TC_STOMACH | 4.52 | 0.125
SHMAC5_PROSTATE | 3.3 | 0.118
SIMA_AUTONOMIC_GANGLIA | > 10 | 0.159
SJSA1_BONE | 7.93 | 0.095
SKES1_BONE | 6.06 | 0.128
SKGII_ENDOMETRIUM | 8.23 | 0.0529
SKGI_ENDOMETRIUM | 4.89 | 0.142
SKGT2_STOMACH | 9.72 | 0.00814
SKGT4_OESOPHAGUS | 0.494 | 0.403
SKLMS1_SOFT_TISSUE | 9.65 | 0.0071
SKLU1_LUNG | 1 | 0.329
SKM1_HAEMATOPOIETIC_AND_LYMPHOID_TISSUE | 0.316 | 0.446
SKMEL2_SKIN | 9.59 | 0.0065
SKMEL5_SKIN | 7.01 | 0.0596
SKMEL24_SKIN | 9.18 | 0.157
SKMEL28_SKIN | 4.05 | 0.217
SKMEL30_SKIN | 9.15 | 0.0152
SKMES1_LUNG | 8.98 | 0.0245
SKNAS_AUTONOMIC_GANGLIA | 4.32 | 0.086
SKNBE2_AUTONOMIC_GANGLIA | 4.48 | 0.206
SKNDZ_AUTONOMIC_GANGLIA | 9.28 | 0.012
SKNFI_AUTONOMIC_GANGLIA | 5.39 | 0.112
SKNMC_BONE | 7.83 | 0.193

Test System | IC50 of cell viability [1] [µM] | 1 - AUC of viability dose-response curve [2]
SKNSH_AUTONOMIC_GANGLIA | > 10 | 0.25
SKN_ENDOMETRIUM | 6.7 | 0.101
SKOV3_OVARY | 7.06 | 0.0812
SKPNDW_BONE | 9.05 | 0.0174
SKUT1_SOFT_TISSUE | 4.83 | 0.207
SMSCTR_SOFT_TISSUE | > 10 | 0.0341
SNGM_ENDOMETRIUM | 7.12 | 0.0648
SNU1_STOMACH | 5.53 | 0.102
SNU46_UPPER_AERODIGESTIVE_TRACT | 5.4 | 0.192
SNU61_LARGE_INTESTINE | 0.465 | 0.307
SNU81_LARGE_INTESTINE | 9.39 | 0.129
SNU119_OVARY | 5.65 | 0.162
SNU182_LIVER | > 10 | 0.0527
SNU201_CENTRAL_NERVOUS_SYSTEM | > 10 | 0.0868
SNU213_PANCREAS | 5.63 | 0.106
SNU216_STOMACH | 8.63 | 0.0735
SNU245_BILIARY_TRACT | 0.731 | 0.381
SNU308_BILIARY_TRACT | 8.63 | 0.0812
SNU398_LIVER | 3.55 | 0.176
SNU407_LARGE_INTESTINE | 1.21 | 0.3
SNU410_PANCREAS | 9.47 | 0.0692
SNU423_LIVER | 3.81 | 0.152
SNU449_LIVER | 7.3 | 0.0578
SNU466_CENTRAL_NERVOUS_SYSTEM | 2.75 | 0.218

Test System | IC50 of cell viability [1] [µM] | 1 - AUC of viability dose-response curve [2]
SNU489_CENTRAL_NERVOUS_SYSTEM | 4.14 | 0.103
SNU638_STOMACH | 8.32 | 0.119
SNU668_STOMACH | 6.46 | 0.234
SNU685_ENDOMETRIUM | 9.5 | 0.0102
SNU719_STOMACH | 9.46 | 0.00913
SNU761_LIVER | 2.4 | 0.297
SNU840_OVARY | 7.7 | 0.0623
SNU869_BILIARY_TRACT | 2.14 | 0.279
SNU886_LIVER | 5.03 | 0.211
SNU899_UPPER_AERODIGESTIVE_TRACT | 4.32 | 0.157
SNU1041_UPPER_AERODIGESTIVE_TRACT | 9.15 | 0.019
SNU1066_UPPER_AERODIGESTIVE_TRACT | 6.03 | 0.0923
SNU1076_UPPER_AERODIGESTIVE_TRACT | 3.84 | 0.104
SNU1077_ENDOMETRIUM | 8.81 | 0.0934
SNU1105_CENTRAL_NERVOUS_SYSTEM | 4.12 | 0.157
SNU1196_BILIARY_TRACT | 0.361 | 0.496
SNU1214_UPPER_AERODIGESTIVE_TRACT | 0.175 | 0.482
SNU1544_LARGE_INTESTINE | 2.68 | 0.203
SNU2372_BREAST | 6.37 | 0.0682
SNUC2A_LARGE_INTESTINE | > 10 | 0.0882
SNUC4_LARGE_INTESTINE | 5.72 | 0.162
SQ1_LUNG | 3.68 | 0.153
SR786_HAEMATOPOIETIC_AND_LYMPHOID_TISSUE | 7.44 | 0.0498
SSP25_BILIARY_TRACT | 8.5 | 0.11

Test System | IC50 of cell viability [1] [µM] | 1 - AUC of viability dose-response curve [2]
STM9101_SOFT_TISSUE | > 10 | 0.0387
SUDHL1_HAEMATOPOIETIC_AND_LYMPHOID_TISSUE | 4.67 | 0.14
SUDHL8_HAEMATOPOIETIC_AND_LYMPHOID_TISSUE | 9.1 | 0.0165
SUIT2_PANCREAS | 4.96 | 0.123
SUM149PT_BREAST | 3.94 | 0.168
SUM159PT_BREAST | 7.31 | 0.064
SUPB15_HAEMATOPOIETIC_AND_LYMPHOID_TISSUE | 3.13 | 0.149
SUPT11_HAEMATOPOIETIC_AND_LYMPHOID_TISSUE | 5.2 | 0.0681
SUSA_TESTIS | 1.09 | 0.243
SW13_ADRENAL_CORTEX | 4.77 | 0.0973
SW156_KIDNEY | 9.51 | 0.0358
SW579_THYROID | 3.16 | 0.133
SW620_LARGE_INTESTINE | 1.1 | 0.313
SW626_LARGE_INTESTINE | 4.08 | 0.124
SW756_CERVIX | 5.46 | 0.14
SW780_URINARY_TRACT | 3.46 | 0.22
SW837_LARGE_INTESTINE | 5.95 | 0.0901
SW900_LUNG | 8.99 | 0.115
SW948_LARGE_INTESTINE | 7.49 | 0.167
SW954_CERVIX | 3.72 | 0.117
SW1088_CENTRAL_NERVOUS_SYSTEM | 8.8 | 0.159
SW1116_LARGE_INTESTINE | 2.37 | 0.214
SW1353_BONE | > 10 | 0.032
